Assay results: BindingDB's records for doi:10.1124/jpet.102.034249 (Sanofi-Synthelabo Recherche, 2002)

Legend:
[1] = biological target: T1, 5-hydroxytryptamine receptor 1A (Homo sapiens, UniProt P08908)
T1 sequence (P08908 whole entry): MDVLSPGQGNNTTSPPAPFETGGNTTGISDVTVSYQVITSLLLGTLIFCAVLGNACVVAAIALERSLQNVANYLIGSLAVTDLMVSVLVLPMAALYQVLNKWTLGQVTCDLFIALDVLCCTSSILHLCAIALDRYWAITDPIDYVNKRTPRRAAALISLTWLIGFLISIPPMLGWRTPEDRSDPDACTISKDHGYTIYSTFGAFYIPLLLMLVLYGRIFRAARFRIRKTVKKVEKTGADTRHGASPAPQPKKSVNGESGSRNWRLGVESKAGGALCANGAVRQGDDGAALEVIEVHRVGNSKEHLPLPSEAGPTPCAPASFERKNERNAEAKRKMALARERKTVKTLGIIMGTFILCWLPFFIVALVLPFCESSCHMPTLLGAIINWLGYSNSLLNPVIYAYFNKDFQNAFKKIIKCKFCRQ

[2] = biological target: 5-hydroxytryptamine receptor 2A (Homo sapiens, UniProt P28223)
Sequence of 5-hydroxytryptamine receptor 2A (P28223 whole entry): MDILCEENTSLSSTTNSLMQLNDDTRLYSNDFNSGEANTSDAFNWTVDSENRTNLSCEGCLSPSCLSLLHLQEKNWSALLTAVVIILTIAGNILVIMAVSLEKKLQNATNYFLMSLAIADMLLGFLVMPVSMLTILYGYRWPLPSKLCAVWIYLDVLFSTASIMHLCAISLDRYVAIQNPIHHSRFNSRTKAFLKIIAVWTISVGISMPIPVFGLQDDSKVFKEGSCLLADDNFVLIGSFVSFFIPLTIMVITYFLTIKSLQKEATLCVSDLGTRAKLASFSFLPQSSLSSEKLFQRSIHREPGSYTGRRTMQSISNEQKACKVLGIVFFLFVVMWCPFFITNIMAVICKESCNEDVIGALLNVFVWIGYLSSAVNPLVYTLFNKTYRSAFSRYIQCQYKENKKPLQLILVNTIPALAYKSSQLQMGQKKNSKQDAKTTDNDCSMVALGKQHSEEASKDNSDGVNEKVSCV

[3] = biological target: 5-hydroxytryptamine receptor 6 (Homo sapiens, UniProt P50406)
Sequence of 5-hydroxytryptamine receptor 6 (P50406 whole entry): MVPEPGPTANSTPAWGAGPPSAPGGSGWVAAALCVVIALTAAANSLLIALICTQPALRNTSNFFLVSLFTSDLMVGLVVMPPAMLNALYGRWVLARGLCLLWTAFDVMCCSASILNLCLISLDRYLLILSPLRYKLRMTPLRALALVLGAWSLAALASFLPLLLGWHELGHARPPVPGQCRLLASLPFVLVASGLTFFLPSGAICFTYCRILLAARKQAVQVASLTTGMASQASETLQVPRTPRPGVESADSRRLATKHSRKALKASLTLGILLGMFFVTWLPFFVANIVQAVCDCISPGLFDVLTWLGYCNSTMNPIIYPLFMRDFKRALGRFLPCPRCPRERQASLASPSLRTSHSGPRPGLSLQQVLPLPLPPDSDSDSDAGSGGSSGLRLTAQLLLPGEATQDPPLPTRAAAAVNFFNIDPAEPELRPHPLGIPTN

[4] = biological target: 5-hydroxytryptamine receptor 1B (Homo sapiens, UniProt P28222)
Sequence of 5-hydroxytryptamine receptor 1B (P28222 whole entry): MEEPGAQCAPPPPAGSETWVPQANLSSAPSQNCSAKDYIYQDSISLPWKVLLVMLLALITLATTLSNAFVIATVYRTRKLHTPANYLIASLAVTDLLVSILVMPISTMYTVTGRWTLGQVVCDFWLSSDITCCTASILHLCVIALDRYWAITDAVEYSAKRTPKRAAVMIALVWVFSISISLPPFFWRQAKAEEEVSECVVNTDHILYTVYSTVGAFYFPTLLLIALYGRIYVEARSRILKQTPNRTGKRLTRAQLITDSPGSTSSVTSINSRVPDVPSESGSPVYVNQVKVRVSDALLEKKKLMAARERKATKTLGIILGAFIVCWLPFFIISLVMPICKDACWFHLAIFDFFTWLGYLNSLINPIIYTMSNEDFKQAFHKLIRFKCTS

[5] = biological target: 5-hydroxytryptamine receptor 1D (Homo sapiens, UniProt P28221)
Sequence of 5-hydroxytryptamine receptor 1D (P28221 whole entry): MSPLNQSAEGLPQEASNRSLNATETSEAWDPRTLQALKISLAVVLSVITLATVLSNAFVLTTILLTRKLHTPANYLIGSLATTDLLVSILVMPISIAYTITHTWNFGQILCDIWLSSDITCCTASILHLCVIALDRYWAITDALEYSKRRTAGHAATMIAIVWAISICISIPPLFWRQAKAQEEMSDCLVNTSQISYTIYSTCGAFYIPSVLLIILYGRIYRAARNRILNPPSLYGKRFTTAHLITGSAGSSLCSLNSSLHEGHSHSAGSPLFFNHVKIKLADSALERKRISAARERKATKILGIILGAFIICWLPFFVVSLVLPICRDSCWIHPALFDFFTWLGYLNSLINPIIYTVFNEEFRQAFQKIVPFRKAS

[6] = biological target: 5-hydroxytryptamine receptor 2B (Homo sapiens, UniProt P41595)
Sequence of 5-hydroxytryptamine receptor 2B (P41595 whole entry): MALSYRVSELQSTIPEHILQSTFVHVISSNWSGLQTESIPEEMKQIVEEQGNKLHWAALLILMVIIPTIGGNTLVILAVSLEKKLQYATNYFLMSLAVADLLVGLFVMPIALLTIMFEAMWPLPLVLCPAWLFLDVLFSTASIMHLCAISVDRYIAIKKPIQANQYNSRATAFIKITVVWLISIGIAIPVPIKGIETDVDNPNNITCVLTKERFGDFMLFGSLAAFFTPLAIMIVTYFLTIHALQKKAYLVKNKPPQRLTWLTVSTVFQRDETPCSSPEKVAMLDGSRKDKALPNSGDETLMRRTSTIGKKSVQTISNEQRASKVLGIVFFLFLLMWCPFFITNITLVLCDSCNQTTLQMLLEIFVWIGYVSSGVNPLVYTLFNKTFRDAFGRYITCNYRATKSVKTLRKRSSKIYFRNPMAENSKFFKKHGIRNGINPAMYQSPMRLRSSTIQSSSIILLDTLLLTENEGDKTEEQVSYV

[7] = biological target: 5-hydroxytryptamine receptor 7 (Homo sapiens, UniProt P34969)
Sequence of 5-hydroxytryptamine receptor 7 (P34969 whole entry): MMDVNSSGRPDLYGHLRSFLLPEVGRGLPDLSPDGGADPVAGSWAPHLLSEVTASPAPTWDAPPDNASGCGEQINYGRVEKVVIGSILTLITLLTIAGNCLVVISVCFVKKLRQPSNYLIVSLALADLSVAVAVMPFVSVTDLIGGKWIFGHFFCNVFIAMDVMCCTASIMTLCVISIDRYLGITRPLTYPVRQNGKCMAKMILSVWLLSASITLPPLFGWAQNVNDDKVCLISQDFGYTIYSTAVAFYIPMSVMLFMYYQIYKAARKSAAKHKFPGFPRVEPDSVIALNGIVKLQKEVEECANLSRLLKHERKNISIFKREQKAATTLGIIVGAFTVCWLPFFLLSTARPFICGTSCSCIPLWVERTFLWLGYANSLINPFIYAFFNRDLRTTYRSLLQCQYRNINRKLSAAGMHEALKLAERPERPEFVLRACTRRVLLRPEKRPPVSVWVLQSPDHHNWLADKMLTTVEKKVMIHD

[8] = biological target: T2, 5-hydroxytryptamine receptor 3A (Homo sapiens, UniProt P46098)
T2 sequence (P46098 whole entry): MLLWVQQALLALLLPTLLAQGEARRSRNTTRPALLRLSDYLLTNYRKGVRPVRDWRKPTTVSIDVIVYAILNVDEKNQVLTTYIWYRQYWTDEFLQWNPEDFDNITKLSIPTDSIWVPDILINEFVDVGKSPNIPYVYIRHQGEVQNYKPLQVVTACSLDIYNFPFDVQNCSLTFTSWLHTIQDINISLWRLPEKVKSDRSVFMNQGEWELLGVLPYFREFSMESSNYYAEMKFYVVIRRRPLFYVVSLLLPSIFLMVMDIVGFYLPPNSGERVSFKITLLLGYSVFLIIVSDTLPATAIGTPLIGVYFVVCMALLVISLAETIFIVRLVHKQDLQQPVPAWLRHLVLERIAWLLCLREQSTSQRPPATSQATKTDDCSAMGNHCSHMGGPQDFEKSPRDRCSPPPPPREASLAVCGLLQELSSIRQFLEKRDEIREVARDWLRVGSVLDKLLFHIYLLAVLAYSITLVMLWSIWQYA

[9] = biological target: 5-hydroxytryptamine receptor 5A (Homo sapiens, UniProt P47898)
Sequence of 5-hydroxytryptamine receptor 5A (P47898 whole entry): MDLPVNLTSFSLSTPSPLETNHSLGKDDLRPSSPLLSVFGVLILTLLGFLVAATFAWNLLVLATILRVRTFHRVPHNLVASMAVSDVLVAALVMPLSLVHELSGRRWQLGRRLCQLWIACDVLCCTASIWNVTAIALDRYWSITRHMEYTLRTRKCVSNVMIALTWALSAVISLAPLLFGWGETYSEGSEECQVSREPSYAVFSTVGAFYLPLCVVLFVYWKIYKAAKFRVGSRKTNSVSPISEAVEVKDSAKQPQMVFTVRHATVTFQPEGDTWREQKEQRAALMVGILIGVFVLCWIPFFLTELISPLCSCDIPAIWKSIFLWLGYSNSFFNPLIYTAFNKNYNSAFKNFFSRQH

[10] = biological target: 5-hydroxytryptamine receptor 4 (Homo sapiens, UniProt Q13639)
Sequence of 5-hydroxytryptamine receptor 4 (Q13639 whole entry): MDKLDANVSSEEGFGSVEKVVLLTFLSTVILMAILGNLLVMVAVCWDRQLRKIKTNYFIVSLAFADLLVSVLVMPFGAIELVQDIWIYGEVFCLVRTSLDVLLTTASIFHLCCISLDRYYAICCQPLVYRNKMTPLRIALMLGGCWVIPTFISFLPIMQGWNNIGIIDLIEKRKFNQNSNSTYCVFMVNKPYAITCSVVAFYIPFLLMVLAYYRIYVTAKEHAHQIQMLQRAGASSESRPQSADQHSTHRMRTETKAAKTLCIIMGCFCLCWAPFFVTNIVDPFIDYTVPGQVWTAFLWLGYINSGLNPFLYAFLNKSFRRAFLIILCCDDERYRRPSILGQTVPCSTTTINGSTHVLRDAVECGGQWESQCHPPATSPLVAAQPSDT

[11] = biological target: T3, 5-hydroxytryptamine receptor 2C (Homo sapiens, UniProt P28335)
T3 sequence (P28335 whole entry): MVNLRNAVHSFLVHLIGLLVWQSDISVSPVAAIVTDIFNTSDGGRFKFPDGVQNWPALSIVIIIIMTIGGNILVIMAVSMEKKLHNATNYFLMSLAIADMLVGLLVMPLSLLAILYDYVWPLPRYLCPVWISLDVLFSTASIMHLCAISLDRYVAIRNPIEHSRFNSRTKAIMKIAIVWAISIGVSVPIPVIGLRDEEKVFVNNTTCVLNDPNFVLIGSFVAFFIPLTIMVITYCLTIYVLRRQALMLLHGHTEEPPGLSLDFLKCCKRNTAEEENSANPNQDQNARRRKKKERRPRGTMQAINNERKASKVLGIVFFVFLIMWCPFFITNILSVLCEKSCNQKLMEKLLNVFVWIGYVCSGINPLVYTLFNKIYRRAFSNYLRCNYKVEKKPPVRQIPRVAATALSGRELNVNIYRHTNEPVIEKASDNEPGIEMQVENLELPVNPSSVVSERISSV

- Ki [1]: 1.02 µM
- Ki [2]: 1.32 µM
- Ki [3]: 2.58 µM
- Ki [4]: 5.5 µM
- Ki [5]: 7.99 µM
- Ki [6]: 1.56 µM
- Ki [7]: 3.26 µM
- Ki [8]: > 10 µM
- Ki [9]: > 10 µM
- Ki [10]: 0.0006 µM
- Ki [11]: 4.78 µM
Structure (SMILES): Nc1c(Cl)cc(-c2nn(C3CCN(CCc4ccccc4)CC3)c(=O)o2)c2c1OCCO2 [SL65.0155]
